Assay [1] relates to MCF7 cells. Kind of assay: Mitochondrial outer membrane potential assay (MOMP). In kind it is cell-based, human. Particulars: MCF7, 10 mM, 24 hrs. The protocol: (§1) One of the key hallmarks of apoptosis is the loss of mitochondrial membrane potential. To investigate that aspect we did a MOMP assay which validates our Cell-APOPercentage assay. This assay was tested on three cell lines MCF7, MDA-MB-231 & MRC-5. The top right and bottom hand quadrants of each plot represents healthy (FL2-A) and apoptotic (FL1-A) cells respectively (see FIGS. 13 to 15).
(§2) From the results obtained from MTT (IC50 values) and Cell-APOPercentage assays it was quite evident that ˜10 mM HPβCD caused cellular growth inhibition through apoptosis in cancer cells and had little or no effect in normal cells. Therefore, we selected just 10 mM HPβCD going forward as the only working concentration for HPβCD treatment. 24 hrs time point was selected (HPβCD & 10 mM H2O2) because mitochondrial membrane potential loss is an early cellular event.

Assay [2] relates to MDA-MB-231 cells. The description is as above. Type of assay: cell-based, human. The conditions noted are these: MDA-MB-231, 10 mM, 24 hrs. Here is the method: as §1, §2
Another assay deals with MRC-5 cells. The description is as above. In kind it is cell-based, human. The conditions noted are these: MRC-5, 10 mM HPβCD, 24 hrs. Here is the method: as §1, §2
Assay [3] concerns MDA-MB-231 cells. Kind of assay: Filipin cholesterol staining. In kind it is cell-based, human. The protocol:
To further validate cholesterol depletion as observed from the cholesterol assay above a Filipin based cholesterol staining was conducted. MCF7. MDA-MB-231 cells were used. HEK-293 cells could not be used due to unavailability. HPβCD and the positive (5 mM MBCD) were treated for 24 hrs. Like PL, MBCD is also a well know cholesterol depletor.
Fluorescence microscopy has been a robust tool for investigating the intracellular transport of proteins. Filipin specifically binds to cholesterol and can give an overall quantification and has been more recently been clinically used in the diagnosis of Type C Niemann-Pick disease.

Another assay deals with SREBP-1 in MCF7 cells. Kind of assay: Western blotting for SREBP-1. Particulars: MCF7, 10 mM HPβCD, 24 hrs. Type of assay: cell-based, human. The protocol: (§3) In order to delve in to more detailed mechanisms of cholesterol depletion a western blotting analysis was conducted for SREBP-1 protein, which is a known transcription factor involved in cholesterol homeostasis. Lysates from MCF7, MDA-MB-231 and MRC-5 cells were used. 10 mM HPβCD was treated for 24 hrs. SREBPs are key elements responsible for the gene expression of vital enzymes involved in fatty acid synthesis which includes SREBP 1 and SREBP 2. […] In order to investigate this characteristic feature of SREBPs a western blot analysis was conducted to see if HPβCD treatment does alter SREBP levels.
A general note: In western blotting, separated proteins are transferred to a membrane and probed.

Assay [4] has as its system SREBP-1 in MDA-MB-231 cells. Kind of assay: Western blotting for SREBP-1. Type of assay: cell-based, human. The conditions noted are these: MDA-MB-231, 10 mM HPβCD, 24 hrs. Here is the method: as §3
The test system of the next assay is SREBP-1 in MRC-5 cells. Kind of assay: Western blotting for SREBP-1. Type of assay: cell-based, human. The conditions noted are these: MRC-5, 10 mM HPβCD, 24 hrs. The protocol:
as §3

In assay [5] the test system is MCF7 cells. Kind of assay: Mice xenograft, ER+ breast cancer. In kind it is in vivo, Nude Mice, MF-1 strain. The protocol: Since the potency of HPβCD against breast cancer was established in our in vitro assays, a thorough investigation in a mice model was conducted (Nude Mice. MF-1 strain). MCF-7 and MDA-MB-231 cells were injected in 32 mice (16 for each cell type) and after tumour development, was treated with HPβCD (3000 mg/kg b.w.). Thrice a week dose treatment plan was followed throughout the study.
To examine if HPβCD can be used as a future anti-breast cancer drug, mice xenografts were prepared. MCF7 cells (5 million) cells were injected in 16 mice with weekly β-estradiol supplementation. The study for triple negative induced breast cancer (MDA-MB-231) is complete. Up to 4 million cells were injected in 16 mice. This was subdivided in three more groups namely: Late stage, intermediate stage and early stage estrogen negative cancer. 4 mice were grouped as untreated (not receiving HPβCD), 4 for treated (late stage), 3 for treated (intermediate stage) and 3 for treated (early stage).
The anticancer effect of HPβCD on estrogen positive MCF7 cells induced tumours in xenograft mice model was also tested. The study was not completed as only 4 out of 16 mice developed tumours. But the mice who developed tumour were treated with HPβCD and 9.6% tumour reduction was observed (FIGS. 49 and 50).

In assay [6] the test system is MCF7 cells. Put plainly: RT2 Profiler PCR Array Human Breast cancer. In kind it is cell-based. The source says: (§4) PCR (polymerase chain reaction) arrays were run to identify gene expression changes in cancer cells after treatment with HPβCD. The differentially expressed genes along with their significance for cancer, some genes were selected for further drug-protein interaction studies.

In assay [7] the test system is MDA-MB-231 cells. Kind of assay: RT2 Profiler PCR Array Human Breast cancer. Type of assay: cell-based.
Source text: as §4

In the case of 2-hydroxypropyl-β-cyclodextrin [HPβCD], the “apoptotic population (loss of mitochondrial membrane potential)” value with MCF7 cells [1] came to 92.1%. The “apoptotic cells / cell death (loss of mitochondrial membrane potential)” value with MDA-MB-231 cells [2] was 78.1%. Further, in the assay with MRC-5 cells, the apoptotic cells was 12.8% and the non-apoptotic/healthy population worked out at 98.2%. Also, the “Filipin fluorescence compared to untreated” value in the assay with MDA-MB-231 cells [3] (MDA-MB-231, 10 mM HPβCD, 24 hrs, ImageJ) is listed as “six times less fluorescence”. Further, the “cholesterol (Filipin staining) in treated vs untreated cells” value in the assay on MDA-MB-231 cells [3] (MDA-MB-231, FIG. 46) is “decreased cholesterol”. For the same substance, the “SREBP-1 protein level compared to untreated lysate” value in the assay on SREBP-1 in MCF7 cells is on record as “about five times less activity of SREBP-1”. Further, the “SREBP-1 protein level compared to untreated lysate” value in assay [4] is “about two and a half times less activity of SREBP-1”. In addition, the “SREBP-1 activity compared to untreated lysate” value in the assay with SREBP-1 in MRC-5 cells is given as “remained equal”. The average tumour size with MCF7 cells [5] (ER+ MCF7 mice, treated for 5 weeks) is 5.3 mm^3. In addition, the tumour outcome with MCF7 cells [5] (Mouse No. 29, 30 and 32, treated for 5 weeks) is “healed completely”. In the assay on MCF7 cells [5] (Mouse No. 31, treated for 5 weeks), the tumour size is listed as 21.28 mm^3. Also, in the assay with MCF7 cells [6], the ADAM23 gene expression entry was “downregulated by many folds” and the CTSD gene expression entry is on record as “significantly downregulated”. In the assay on MDA-MB-231 cells [7], the ADAM23 gene expression result is “upregulated”, the Akt1 gene expression result is listed as “upregulated”, the CTSD gene expression entry is “upregulated” and the GATA3 gene expression result is on record as “downregulated”. Moreover, the SFRP1 gene expression entry in the assay with MDA-MB-231 cells [7] is given as “upregulated”.
